Measurements: ChEMBL document CHEMBL1150740, “Studies on inhibitors of skin-tumor promotion, I. Inhibitory effects of triterpenes from Euptelea polyandra on Epstein-Barr virus activation” (J Nat Prod, 1987)

Columns and labels:
Type in all cases: cell-based
[1] = Cytotoxicity against human Raji cells assessed as cell viability at 10 mol ratio after 48 hrs relative to TPA; details: read-out: Activity
[2] = Cytotoxicity against human Raji cells assessed as cell viability at 1000 mol ratio after 48 hrs relative to TPA; details: read-out: Activity
[3] = test system: Raji; assay: Inhibition of TPA-induced EBV-early antigen activation in human Raji cells assessed as early antigen activation at 1000 mol ratio after 48 hrs relative to TPA; parameters: scale not given: the % may be the effect or the level left; details: human gammaherpesvirus 4
[4] = Cytotoxicity against human Raji cells assessed as cell viability at 100 mol ratio after 48 hrs relative to TPA; details: read-out: Activity
[5] = test system: Raji; assay: Inhibition of TPA-induced EBV-early antigen activation in human Raji cells assessed as early antigen activation at 10 mol ratio after 48 hrs relative to TPA; details: human gammaherpesvirus 4
[6] = Cytotoxicity against human Raji cells assessed as cell viability at 5000 mol ratio after 48 hrs relative to TPA; details: read-out: Activity
[7] = test system: Raji; assay: Inhibition of TPA-induced EBV-early antigen activation in human Raji cells assessed as early antigen activation at 100 mol ratio after 48 hrs relative to TPA; details: human gammaherpesvirus 4
[8] = test system: Raji; assay: Inhibition of TPA-induced EBV-early antigen activation in human Raji cells assessed as early antigen activation at 5000 mol ratio after 48 hrs relative to TPA; parameters: scale not given: the % may be the effect or the level left; details: human gammaherpesvirus 4
[9] = test system: Raji; assay: Inhibition of EBV-early antigen activation in human Raji cells assessed as early antigen activation at 1 uM ratio after 48 hrs; parameters: scale not given: the % may be the effect or the level left

| Structure (SMILES) | viability at 48 h, 10 mol ratio relative to TPA [1] [%] | viability at 48 h, 1000 mol ratio relative to TPA [2] [%] | Activity [3] [%] | viability at 48 h, 100 mol ratio relative to TPA [4] [%] | EBV-EA activation relative to TPA [5] [%] | viability at 48 h, 5000 mol ratio relative to TPA [6] [%] | EBV early antigen activation relative to TPA [7] [%] | Activity [8] [%] | Activity [9] [%] |
| --- | --- | --- | --- | --- | --- | --- | --- | --- | --- |
| CC(=O)O[C@@H]1C[C@]2(C)[C@H]3CC=C4[C@@H]5CC(C)(C)CC[C@]5(C(=O)O)CC[C@@]4(C)[C@]3(C)CC[C@H]2C(C)(C)[C@H]1OC(C)=O | 100 | 20 | 0 | 70 | 100 | 0 | 59.6 | 0 | 0 |
| COC(=O)[C@]12CCC(C)(C)C[C@H]1C1=CC[C@@H]3[C@@]4(C)C[C@@H](O)[C@H](O)C(C)(C)[C@@H]4CC[C@@]3(C)[C@]1(C)CC2 [MASLINIC ACID METHYL ESTER] | 100 | 80 | 65.6 | 100 | 100 | 0 | 100 | 0 | 0 |
| COC(=O)[C@]12CCC(C)(C)C[C@H]1C1=CC[C@@H]3[C@@]4(C)CC[C@H](O)C(C)(C)[C@@H]4CC[C@@]3(C)[C@]1(C)CC2 [METHYL OLEANOLATE] | 100 | 50 | 29.5 | 80 | 100 | 0 | 46.3 | 0 | 0 |
| CC(=O)O[C@H]1CC[C@]2(C)[C@H]3CC=C4[C@@H]5CC(C)(C)CC[C@]5(CO)CC[C@@]4(C)[C@]3(C)CC[C@H]2C1(C)C | 100 | 70 | 32.3 | > 80 | 100 | 40 | 59.4 | 0 | 0 |
| C=C(C)[C@@H]1CC[C@]2(C(=O)O)CC[C@]3(C)[C@H](CC[C@@H]4[C@@]5(C)CC[C@H](O)C(C)(C)[C@@H]5CC[C@]43C)[C@@H]12 [BETULINIC ACID] | 100 | > 80 | 80 | 100 |  | 20 | 100 | 0 | 0 |
| CC1(C)CC[C@]2(C)CC[C@]3(C)C(=CC[C@@H]4[C@@]5(C)C(=O)CC(=O)C(C)(C)[C@@H]5CC[C@]43C)[C@@H]2C1 | 100 | 20 | 0 | 100 | 100 | 0 | 100 | 0 | 0 |
| CC1(C)CC[C@]2(C(=O)O)CC[C@]3(C)C(=CC[C@@H]4[C@@]5(C)CC[C@H](O)C(C)(C)[C@@H]5CC[C@]43C)[C@@H]2C1 [OLEANOLIC_ACID] | 100 | 60 | 30 | > 80 | 100 | 20 | 80 | 0 | 2.3 |
| CC(=O)O[C@H]1CC[C@]2(C)[C@H]3CC=C4[C@@H]5CC(C)(C)CC[C@]5(C=O)CC[C@@]4(C)[C@]3(C)CC[C@H]2C1(C)C | 100 | 100 | 100 | 100 | 100 | 40 | 100 | 0 | 0 |
| C=C(C)[C@@H]1CC[C@]2(C)CC[C@]3(C)[C@H](CC[C@@H]4[C@@]5(C)CC[C@H](OC(C)=O)C(C)(C)[C@@H]5CC[C@]43C)[C@@H]12 [LUPENYL ACETATE] | 100 | 80 | 81.8 | 100 | 100 | 60 | 100 | 0 | 0 |
| C=C(C)[C@@H]1CC[C@]2(C(=O)O)CC[C@]3(C)[C@H](CC[C@@H]4[C@@]5(C)CC[C@H](OC(C)=O)C(C)(C)[C@@H]5CC[C@]43C)[C@@H]12 | 100 | 80 | 0 | 80 | 100 | 80 | 55.1 | 0 | 0 |
| C=C(C)[C@@H]1CC[C@]2(CO)CC[C@]3(C)[C@H](CC[C@@H]4[C@@]5(C)CC[C@H](O)C(C)(C)[C@@H]5CC[C@]43C)[C@@H]12 [BETULIN] | 100 | 100 | 100 | 100 | 100 | 80 | 100 | 0 | 1.6 |
| CC1(C)CC[C@]2(C(=O)O)CC[C@]3(C)C(=CC[C@@H]4[C@@]5(C)C[C@@H](O)[C@H](O)C(C)(C)[C@@H]5CC[C@]43C)[C@@H]2C1 [MASLINIC ACID] | 100 | 0 | 0 | 70 | 100 | 0 | 65.6 | 0 | 0 |
| CC(=O)O[C@H]1CC[C@]2(C)[C@H]3CC=C4[C@@H]5CC(C)(C)CC[C@]5(C(=O)O)CC[C@@]4(C)[C@]3(C)CC[C@H]2C1(C)C [ACETYL OLEANOLIC ACID] | 100 | 80 | 36.4 | 100 | 100 | 50 | 100 | 0 | 1.6 |
| C=C(C)[C@@H]1CC[C@]2(C(=O)OC)CC[C@]3(C)[C@H](CC[C@@H]4[C@@]5(C)CC[C@H](O)C(C)(C)[C@@H]5CC[C@]43C)[C@@H]12 [METHYL BETULINATE] | 100 | > 80 | 71.5 | 100 | 100 | 80 | 100 | 0 | 0 |
| CC1(C)CC[C@]2(CO)CC[C@]3(C)C(=CC[C@@H]4[C@@]5(C)CC[C@H](O)C(C)(C)[C@@H]5CC[C@]43C)[C@@H]2C1 [ERYTHRODIOL] | 100 | 50 | 19.3 | > 80 | 100 | 10 | 71.7 | 0 | 0 |
| CC(=O)OC[C@]12CCC(C)(C)C[C@H]1C1=CC[C@@H]3[C@@]4(C)CC[C@H](OC(C)=O)C(C)(C)[C@@H]4CC[C@@]3(C)[C@]1(C)CC2 | 100 | 100 | 100 | 100 | 100 | 50 | 100 | 0 | 0 |
